Data from the NIST ThermoML archive (doi:10.1021/je020065c).
± gives the expanded uncertainty stated by the source.

Tests used:
[1] = 303.1 K; 101.33 kPa; Liquid; pycnometer
[2] = Boiling temperature at pressure P; conditions: 101.3 kPa; Liquid; ebulliometry
[3] = excess molar enthalpy (molar enthalpy of mixing); xn = mol fraction of the nth substance listed; conditions: 298.15 K, 101.3 kPa, Liquid

CC(Cl)(Cl)Cl [1,1,1-trichloroethane]
Conditions | Boiling temperature at pressure P [°C] | mass density [kg/m3]
[1] | – | 1320.94 ± 0.88
[2] | 74.20 ± 0.5 | –

CC(Cl)(Cl)Cl [1,1,1-trichloroethane] + CN1CCCC1=O
[3]
Conditions | excess molar enthalpy [kcal/mol]
x1 = 0.0303 | -0.0145 ± 0.0012
x1 = 0.0662 | -0.0323 ± 0.00174
x1 = 0.1039 | -0.0497 ± 0.00232
x1 = 0.1525 | -0.0702 ± 0.00311
x1 = 0.2006 | -0.0895 ± 0.00359
x1 = 0.2534 | -0.106 ± 0.0043
x1 = 0.3046 | -0.122 ± 0.00478
x1 = 0.3555 | -0.133 ± 0.00526
x1 = 0.4018 | -0.139 ± 0.00526
x1 = 0.4556 | -0.139 ± 0.0055
x1 = 0.5054 | -0.139 ± 0.00526
x1 = 0.5576 | -0.137 ± 0.00526
x1 = 0.6104 | -0.141 ± 0.0055
x1 = 0.6634 | -0.141 ± 0.0055
x1 = 0.7153 | -0.135 ± 0.00526
x1 = 0.7694 | -0.122 ± 0.00478
x1 = 0.8172 | -0.117 ± 0.00454
x1 = 0.8714 | -0.103 ± 0.00406
x1 = 0.9228 | -0.0783 ± 0.00335
x1 = 0.9649 | -0.0437 ± 0.0021

ClC(Cl)C(Cl)Cl [1,1,2,2-tetrachloroethane]
Conditions | Boiling temperature at pressure P [°C] | mass density [kg/m3]
[1] | – | 1578.58 ± 1.1
[2] | 146.20 ± 0.5 | –

ClC(Cl)C(Cl)Cl [1,1,2,2-tetrachloroethane] + CN1CCCC1=O
[3]
Conditions | excess molar enthalpy [kcal/mol]
x1 = 0.0331 | -0.113 ± 0.00454
x1 = 0.0582 | -0.205 ± 0.00765
x1 = 0.0765 | -0.256 ± 0.00956
x1 = 0.1279 | -0.426 ± 0.0153
x1 = 0.1292 | -0.413 ± 0.0148
x1 = 0.1796 | -0.555 ± 0.0198
x1 = 0.2318 | -0.704 ± 0.0239
x1 = 0.2344 | -0.695 ± 0.0239
x1 = 0.288 | -0.838 ± 0.0287
x1 = 0.3219 | -0.893 ± 0.0311
x1 = 0.34 | -0.963 ± 0.0335
x1 = 0.4028 | -1.01 ± 0.0359
x1 = 0.4675 | -1.09 ± 0.0382
x1 = 0.5226 | -1.14 ± 0.0406
x1 = 0.5688 | -1.16 ± 0.0406
x1 = 0.5953 | -1.16 ± 0.0406
x1 = 0.6265 | -1.09 ± 0.0382
x1 = 0.6815 | -1 ± 0.0359
x1 = 0.7384 | -0.89 ± 0.0311
x1 = 0.7933 | -0.742 ± 0.0263
x1 = 0.8536 | -0.533 ± 0.0191
x1 = 0.9099 | -0.354 ± 0.0129
x1 = 0.9574 | -0.179 ± 0.00669

ClCCCl [1,2-dichloroethane]
Conditions | Boiling temperature at pressure P [°C] | mass density [kg/m3]
[1] | – | 1238.3 ± 0.8
[2] | 83.80 ± 0.5 | –

ClCCCl [1,2-dichloroethane] + CN1CCCC1=O
[3]
Conditions | excess molar enthalpy [kcal/mol]
x1 = 0.0658 | -0.0565 ± 0.00263
x1 = 0.1316 | -0.11 ± 0.0043
x1 = 0.1959 | -0.159 ± 0.00598
x1 = 0.2633 | -0.205 ± 0.00765
x1 = 0.331 | -0.248 ± 0.00908
x1 = 0.3947 | -0.282 ± 0.0103
x1 = 0.4525 | -0.301 ± 0.011
x1 = 0.592 | -0.267 ± 0.0098
x1 = 0.6421 | -0.246 ± 0.00908
x1 = 0.6925 | -0.217 ± 0.00813
x1 = 0.7469 | -0.194 ± 0.00717
x1 = 0.8024 | -0.162 ± 0.00621
x1 = 0.856 | -0.123 ± 0.00478
x1 = 0.9111 | -0.0802 ± 0.00335
x1 = 0.9608 | -0.0403 ± 0.00198

CN1CCCC1=O [N-methylpyrrolidone]
Conditions | Boiling temperature at pressure P [°C] | mass density [kg/m3]
[1] | – | 1023.4 ± 0.7
[2] | 202.30 ± 0.5 | –

ClC(Cl)=C(Cl)Cl [tetrachloroethene]
Conditions | Boiling temperature at pressure P [°C] | mass density [kg/m3]
[1] | – | 1606.4 ± 1.1
[2] | 121.00 ± 0.5 | –

ClC(Cl)=C(Cl)Cl [tetrachloroethene] + CN1CCCC1=O
[3]
Conditions | excess molar enthalpy [kcal/mol]
x1 = 0.039 | -0.00239 ± 0.000813
x1 = 0.0887 | -0.00292 ± 0.000837
x1 = 0.1357 | -0.0012 ± 0.000789
x1 = 0.2415 | 0.007 ± 0.000956
x1 = 0.2932 | 0.0137 ± 0.00117
x1 = 0.3454 | 0.0214 ± 0.00141
x1 = 0.536 | 0.0623 ± 0.00263
x1 = 0.6006 | 0.0709 ± 0.00311
x1 = 0.6688 | 0.0803 ± 0.00335
x1 = 0.742 | 0.0775 ± 0.00335
x1 = 0.813 | 0.0706 ± 0.00311
x1 = 0.8822 | 0.0566 ± 0.00263
x1 = 0.9441 | 0.0342 ± 0.00179

ClC=C(Cl)Cl [trichloroethene]
Conditions | Boiling temperature at pressure P [°C] | mass density [kg/m3]
[1] | – | 1451.2 ± 1
[2] | 87.10 ± 0.5 | –

ClC=C(Cl)Cl [trichloroethene] + CN1CCCC1=O
[3]
Conditions | excess molar enthalpy [kcal/mol]
x1 = 0.0381 | -0.0454 ± 0.00215
x1 = 0.0886 | -0.106 ± 0.0043
x1 = 0.1426 | -0.158 ± 0.00598
x1 = 0.2005 | -0.216 ± 0.00813
x1 = 0.2675 | -0.276 ± 0.01
x1 = 0.3373 | -0.343 ± 0.0124
x1 = 0.4001 | -0.394 ± 0.0141
x1 = 0.6547 | -0.343 ± 0.0124
x1 = 0.7095 | -0.315 ± 0.0115
x1 = 0.7643 | -0.28 ± 0.0103
x1 = 0.8186 | -0.23 ± 0.0086
x1 = 0.873 | -0.176 ± 0.00669
x1 = 0.9254 | -0.112 ± 0.00454
x1 = 0.9678 | -0.0504 ± 0.00234
